Results reported in patent US11690897B2, “Salt inducible kinase inhibitors for enhancing fertility” (The Board of Trustees of the University of Illinois, priority 2019, dated 2023).

Legend:
rat granulosa cells = experiment: Cyp19a1 (aromatase) mRNA in primary rat granulosa cells, qPCR relative to Rpl19; assay type: cell-based; details: for FSH-stimulation of aromatase (Cyp19a1 mRNA): FSH plus inhibitor vs FSH, 48 hours, rat granulosa cells (rat and mouse)
Method: Cyp19a1 mRNA levels were quantified 48 hours later and expressed as relative levels to ribosomal L19 protein (Rp119).
FIG. 5A, Expression of each SIK isoform in rat granulosa cells exposed to scrambled oligos (shSCR) or anti-SIK1 (shSIK1), SIK2 (shSIK2), or SIK3 (shSIK3) shRNAs. *p<0.05, **p<0.01, t-test, n=3. FIG. 5B, Cyp19a1, STARD1, and CYP11a1 relative mRNA expression levels after exposure to shSCR, shSIK1, shSIK2, or shSIK3. […] FIG. 5C, Inverse correlation between SIK2 knockdown with CYP19a1 expression in rat granulosa cells.
(§1) Cyp19a1 mRNA levels were quantified 48 hours later and expressed as relative levels to Rp119. Different letters represent significant differences (mean±SEM, n=5, one-way ANOVA followed by Tukey, p<0.05). FIG. 8B, Immature 23-day-old female mice were injected i.p. with YKL or vehicle (PBS). Two hours later, animals were treated with PMSG or PMSG plus YKL. The expression of CYP19a1, CYP11a1, and STARD1 was quantified 48 hours later. *p<0.05, t-test, n=7.
Rat Granulosa Cells. Rat granulosa cells were isolated from immature rats treated with estradiol for three days. Cells were cultured and treated as described for human granulosa cells. Rat experiments were approved by the Biologic Resources Laboratory (BRL) of the University of Illinois at Chicago.
(§2) mRNA Quantification. Total RNA was isolated at the end of each experiment using TRIzol™ reagent (Invitrogen) according to the manufacturer's protocol. The isolated RNA was reverse-transcribed using anchored oligo-dT primers (IDT, Coralville, Iowa) and Moloney Murine Leukemia Virus reverse transcriptase (Invitrogen) at 37° C. for 1 hour. The resulting cDNA was diluted with water to a final volume of 100 μl and 5 μl of diluted cDNA was used for each qPCR reaction. Gene expression is reported relative to ribosomal protein L19 mRNA (Rp119).

human granulosa cells = experiment: CYP19A1 protein (western blot) in granulosa cells of IVF patients with different etiologies; assay type: cell-based; details: patient with anovulation, HG alone or in the presence of FSH
Description: Primary granulosa cells were obtained from patients with normal ovarian function (left panel) or patients diagnosed with polycystic ovarian syndrome or anovulation (right panel). […] The intensity of the CYP19a1 and BACT bands was quantified, and the data expressed as a ratio between aromatase and BACT. Different letters represent significant differences, one-way ANOVA followed by Tukey test, p<0.05, (n=5).
Human Granulosa Cells. Human cells were collected from the follicular aspirates of women undergoing in vitro fertilization treatment at the University of Illinois at Chicago Fertility Center, under Institute Review Board approval. Informed consents were obtained from all women. […] Cells were transported immediately to the laboratory where they were dispersed by hyaluronidase digestion (8 IU/μl) and then centrifuged at 500×g for 5 minutes. Cells were incubated at room temperature in red blood cell lysis buffer for 2 minutes to eliminate contaminating erythrocytes. The cells were again centrifuged at 500×g for 5 minutes and suspended in 0.5 ml of serum-free DMEM/F12-0.25% BSA medium containing antibiotics. […] To investigate protein expression, cells were plated at a density of 200000 cells/well in 6-well plates coated with reconstituted basement membrane sold under the tradename Matrigel® (DB Biosciences). […] Each data point reflects a result obtained from individual patients. […]

[1] = system: primary human granulosa cells; experiment: mRNA expression of FSH target genes in primary human granulosa cells; assay type: cell-based
Description: Different letters represent significant differences (mean±SEM, N≥7, one-way ANOVA followed by Tukey, p<0.05).
Human Granulosa Cells. Human cells were collected from the follicular aspirates of women undergoing in vitro fertilization treatment at the University of Illinois at Chicago Fertility Center, under Institute Review Board approval. Informed consents were obtained from all women. In a subset of patients, additional information was collected to compare the effect of SIK inhibition in patients with different etiologies. Cells were transported immediately to the laboratory where they were dispersed by hyaluronidase digestion (8 IU/μl) and then centrifuged at 500×g for 5 minutes. Cells were incubated at room temperature in red blood cell lysis buffer for 2 minutes to eliminate contaminating erythrocytes. The cells were again centrifuged at 500×g for 5 minutes and suspended in 0.5 ml of serum-free DMEM/F12-0.25% BSA medium containing antibiotics. To investigate mRNA expression, cells were plated at a density of 30000 cells/well in 24-well plates coated with reconstituted basement membrane sold under the tradename Matrigel® (DB Biosciences). To investigate protein expression, cells were plated at a density of 200000 cells/well in 6-well plates coated with reconstituted basement membrane sold under the tradename Matrigel® (DB Biosciences). […] Each data point reflects a result obtained from individual patients. Cells from each patient were cultured separately.
as §2

Mouse granulosa cells = experiment: Estradiol production by granulosa cells (ELISA); assay type: cell-based; details: FSH plus inhibitor, 48 hours
Method: Estradiol was determined by ELISA.
Estradiol Measurement. Cell culture medium used for steroid determinations by ELISA (DRG Instruments; RRID: AB_2756386)) following manufacturer's instructions.

SIK = details: in vivo; cited from earlier work
granulosa cells = experiment: In vivo treatment of immature mice with SIK inhibitor before PMSG, granulosa cell mRNA; details: immature female mice, 10 mg/kg i.p. 2 h before and with PMSG, 48 hours
Method: as §1
In vivo Treatment with SIK Inhibitors. […] Controls were injected with 4 IU PMSG alone. granulosa cells were collected 48 hours after PMSG.
as §2

| Structure (SMILES) | FSH-stimulation of aromatase (Cyp19a1 mRNA) (rat granulosa cells) | Cyp19a1 mRNA levels, inhibitor alone (rat granulosa cells; absence of FSH, HG at 1 or 3 μM) | CYP19A1 levels (human granulosa cells) | IGF2 mRNA expression, FSH plus inhibitor vs FSH alone ([1]; 48 hours) | IGF2 mRNA levels, inhibitor alone vs controls ([1]; absence of FSH) | CYP11A1 mRNA levels, inhibitor alone ([1]; no FSH) | STARD1 mRNA levels, inhibitor alone ([1]; no FSH) | Stimulation of estradiol production by FSH (Mouse granulosa cells) | CYP19A1 mRNA levels, increase vs FSH only ([1]; FSH plus inhibitor, n=16 patients, P<0.0001) [fold] | CYP19A1 mRNA levels, inhibitor alone ([1]; no FSH) | Phosphorylation of a known SIK substrate (SIK) | Cyp11a1 mRNA induction by PMSG (granulosa cells) | Stimulatory effect of PMSG on Cyp19a1 mRNA (granulosa cells) | Stimulatory effect of PMSG on Stard1 mRNA (granulosa cells) |
| --- | --- | --- | --- | --- | --- | --- | --- | --- | --- | --- | --- | --- | --- | --- |
| COc1ccc(N(C(=O)Nc2c(C)cccc2C)c2cc(Nc3ccc(N4CCN(C)CC4)cc3)ncn2)c(OC)c1 [HG-9-91-01] | potentiated FSH-stimulation of aromatase in a concentration-dependent manner | increased Cyp19a1 mRNA levels | stimulated CYP19A1 strongly | tended to be higher | increased IGF2 mRNA levels significantly | enough to increase STARD1 and CYP11A1 mRNA levels | enough to increase STARD1 and CYP11A1 mRNA levels | potentiated the stimulation of estradiol production by FSH in a dose-dependent manner |  |  |  |  |  |  |
| O=C(NCCCNc1nc(Nc2cccc(CN3CCOCC3)c2)ncc1C1CC1)C1CCC1 [MRT67307] | Comparable findings |  |  |  |  |  |  | potentiated the stimulation of estradiol production by FSH in a dose-dependent manner | 3 | did not affect CYP19A1 mRNA levels |  |  |  |  |
| COc1ccc(N2C(=O)N(c3c(C)cccc3Cl)Cc3cnc(Nc4ccc(C5CCN(C)CC5)cc4OC)nc32)nc1 [YKL-05-099] | enhances the stimulatory effect of FSH on Cyp19a1 mRNA expression in a concentration-dependent manner |  |  |  |  |  |  |  |  |  | reduces phosphorylation of a known SIK substrate | only a trend to increase Cyp11a1 mRNA induction | enhanced the stimulatory effect of PMSG on Cyp19a1 and Stard1 significantly | enhanced the stimulatory effect of PMSG on Cyp19a1 and Stard1 significantly |
